From patent US11471436B2, “Dihydronaphthalene derivative” (ONO PHARMACEUTICAL CO., LTD., priority 2014, dated 2022)

Legend:
human S1P5 (EDG-8) [1] = molecular target: T1, human S1P5 (EDG-8) (Homo sapiens, UniProt Q9H228); test: Inhibition of binding of [33P]-S1P to S1P5, CHO membrane fractions; details: for IC50: [33P]-S1P binding, membrane fractions of CHO cells overexpressing human S1P5
Procedure: (§1) Measurement of the Inhibitory Action of the Compound of the Present Invention on Binding of [^33P]-S1P to S1P5 (EDG-8)
(§2) A reaction was carried out in a 96-well microplate by using membrane fractions of Chinese hamster ovary (CHO) cells each of which was made to overexpress human S1P1 (EDG-1) or human S1P5 gene respectively, in an amount of the membrane fraction of 1 mg protein/mL. To each of the wells, 100 μL of a vehicle (DMSO) solution or a ligand solution at a two-fold concentration diluted with Binding Buffer (50 mmol/L, Tris pH 7.5, 5 mmol/L, MgCl2, 0.5% BSA and Complete EDTA free (1 tablet/50 mL)) and […] of 0.16 nmol/L [^33P]-S1P (manufactured by American Radiolabeled Chemicals, Inc.) diluted with Binding Buffer were added, and thereafter, each of membrane fraction solutions (50 μL) was added and the reaction was carried out at room temperature for 60 minutes. After the reaction, suction filtration was carried out by using a 96-well UNIFILTER, and the 96-well microplate was washed with Wash Buffer (50 mmol/L, Tris pH 7.5, 0.5% BSA) (150 mL), and thereafter, was dried at 60° C. for 45 minutes. MicroScint (trade name) 20 (50 μL/well) was added and the plate was covered with TopSeal-A, and thereafter, the radioactivity was measured by using TopCount (manufactured by PerkinElmer Inc.).

human S1P1 (EDG-1) [2] = molecular target: T2, human S1P1 (EDG-1) (Homo sapiens, UniProt P21453); test: Inhibition of binding of [33P]-S1P to S1P1, CHO membrane fractions; details: [33P]-S1P binding, membrane fractions of CHO cells overexpressing human S1P1
Procedure: as §1, §2

human S1P5 (EDG-8) [3] = molecular target: T1, human S1P5 (EDG-8); test: S1P receptor agonist activity by monitoring intracellular cyclic AMP, CHO cells overexpressing S1P5; format: cell-based; details: forskolin-stimulated CHO cells overexpressing human S1P5, read-out: EC 50 value with regard to S1P5 receptor
Procedure: (§3) Evaluation of S1P Receptor Agonist Activities of the Compound of the Present Invention by Monitoring the Concentration of Produced Intracellular Cyclic AMP
(§4) CHO cells which were made to overexpress either human S1P1 (EDG-1) or human S1P5 (EDG-8) gene respectively were cultured in Ham's F12 Medium (manufactured by Gibco-BRL) containing 10% FBS (fetal bovine serum), penicillin/streptomycin and geneticin (0.25 mg/mL). The medium was removed from the cultured cells, the cultured cells were washed once with phosphate-buffered saline, and the cultured cells were treated with a vehicle (DMSO) solution or a compound solution each of which was diluted with Buffer (Hanks' balanced salt solution containing 20 mmol/L HEPES, 0.1 or 0.2% BSA, 1 mmol/L IBMX and 50 μmol/L forskolin) at 37° C. for 30 minutes. Thereafter, the cultured cells were washed once with phosphate-buffered saline. After lysing the cells, the concentration of cyclic AMP in the cell lysate were measured by using cAMP Assay Kit (GE Healthcare).

human S1P1 (EDG-1) [4] = molecular target: T2, human S1P1 (EDG-1); test: S1P receptor agonist activity by monitoring intracellular cyclic AMP, CHO cells overexpressing S1P1; format: cell-based; details: forskolin-stimulated CHO cells overexpressing human S1P1, read-out: EC 50 value with regard to S1P1 receptor
Procedure: as §3, §4

T1 sequence (Q9H228 whole entry): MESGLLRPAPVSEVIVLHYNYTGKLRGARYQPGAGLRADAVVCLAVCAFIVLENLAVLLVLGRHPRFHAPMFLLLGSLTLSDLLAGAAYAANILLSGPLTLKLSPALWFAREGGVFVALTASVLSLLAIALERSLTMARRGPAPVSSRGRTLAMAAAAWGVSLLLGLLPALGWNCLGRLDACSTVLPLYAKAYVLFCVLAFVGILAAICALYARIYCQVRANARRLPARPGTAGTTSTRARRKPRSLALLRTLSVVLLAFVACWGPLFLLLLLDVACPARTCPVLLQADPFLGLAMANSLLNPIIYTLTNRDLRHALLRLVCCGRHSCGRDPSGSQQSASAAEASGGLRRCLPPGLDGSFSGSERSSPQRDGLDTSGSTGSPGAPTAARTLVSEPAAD
T2 sequence (P21453 whole entry): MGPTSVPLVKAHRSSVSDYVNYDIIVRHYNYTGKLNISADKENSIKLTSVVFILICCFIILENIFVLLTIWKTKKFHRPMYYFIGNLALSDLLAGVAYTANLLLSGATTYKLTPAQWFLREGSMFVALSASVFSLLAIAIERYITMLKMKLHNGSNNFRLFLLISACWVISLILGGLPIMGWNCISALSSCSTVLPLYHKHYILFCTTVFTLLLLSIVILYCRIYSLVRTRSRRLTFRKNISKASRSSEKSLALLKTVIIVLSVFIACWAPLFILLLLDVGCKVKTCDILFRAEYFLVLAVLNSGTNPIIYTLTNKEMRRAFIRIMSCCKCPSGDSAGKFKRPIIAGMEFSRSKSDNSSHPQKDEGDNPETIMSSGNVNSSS

| SMILES | IC50 (human S1P5 (EDG-8) [1]) | IC50 (human S1P1 (EDG-1) [2]) | balance of an S1P5 receptor agonist activity against an S1P1 receptor agonist activity (human S1P5 (EDG-8) [1]; conclusion in words from binding IC50 values S1P1 vs S1P5) | EC50 (human S1P5 (EDG-8) [3]) | EC50 (human S1P1 (EDG-1) [4]) |
| --- | --- | --- | --- | --- | --- |
| CC1=C(CN2CC(C(=O)O)C2)CCc2cc(-c3ccccc3)ccc21 [Example 14 (1), 1-[(1-Methyl-6-phenyl-3,4-dihydro-2-naphthalenyl)methyl]-3-azetidinecarboxylic acid] | 22.4 nM | > 10000 nM |  |  |  |
| CCCCc1ccc(Oc2ccc3c(c2)CCC(CN2CC(C(=O)O)C2)=C3C)cc1.Cl [Comparative Compound A, 1-{[6-(4-butylphenoxy)-1-methyl-3,4-dihydronaphthalen-2-yl]methyl}azetidine-3-carboxylic acid hydrochloride, reference compound] | 76 nM | 475 nM | had both S1P1 and S1P5 receptor agonist activities |  |  |
| O=C(O)C1CN(CC2=Cc3ccc(OC4CCCCC4)cc3CC2)C1 [Example 9 (2), 1-{[6-(Cyclohexyloxy)-3,4-dihydro-2-naphthalenyl]methyl}-3-azetidinecarboxylic acid] | 57.2 nM | > 10000 nM |  |  |  |
| CC1=C(CN2CC(C(=O)O)C2)CCc2cc(-c3ccccn3)ccc21 [Example 14 (3), 1-{[1-Methyl-6-(2-pyridinyl)-3,4-dihydro-2-naphthalenyl]methyl}-3-azetidinecarboxylic acid] | 67.2 nM | > 10000 nM |  |  |  |
| CC1Cc2cc(OC3CCCCC3)ccc2C=C1CN1CC(C(=O)O)C1 (stereo not shown) [Example 21, 1-{[6-(Cyclohexyloxy)-3-methyl-3,4-dihydro-2-naphthalenyl]methyl}-3-azetidinecarboxylic acid] | 16 nM | > 10000 nM |  | 0.2 nM | 9990 nM |
